ChEMBL document CHEMBL5046309, “Discovery of SHR5133, a Highly Potent and Novel HBV Capsid Assembly Modulator” (ACS Med Chem Lett, 2022)

Tests used:
HepG2 2.2.15 = assay: Cytotoxicity against human HepG2.2.15 cells assessed as reduction in cell viability incubated for 72 hrs by cell titer-glo assay; format: functional
[1] = Clearance in Sprague-Dawley rat at 1 mg/kg, iv measured up to 24 hrs by LC-MS/MS analysis; format: ADME, organism-based; conditions: in vivo
[2] = AUC(0 to 24 hrs) in Sprague-Dawley rat at 2 mg/kg, po measured up to 24 hrs by LC-MS/MS analysis; format: ADME, organism-based; parameters: route oral, dose 2 mg/kg, time <=24; conditions: in vivo
[3] = Half life in Sprague-Dawley rat at 2 mg/kg, po measured up to 24 hrs by LC-MS/MS analysis; format: ADME, organism-based; conditions: in vivo
[4] = Cmax in Sprague-Dawley rat at 2 mg/kg, po measured up to 24 hrs by LC-MS/MS analysis; format: ADME, organism-based; parameters: route oral, dose 2 mg/kg, time <=24; conditions: in vivo

SMILES	CC50 (HepG2 2.2.15)	further results
C[C@H]1Cn2ncc(C(=O)N[C@H](C)C(F)(F)F)c2CN1C(=O)Nc1ccc(F)c(C#N)c1	> 100 µM	
C[C@H]1Cn2ncc(C(=O)N[C@H](C)C(F)(F)F)c2CN1C(=O)Nc1cc(F)nc(F)c1	> 100 µM	
C[C@H]1Cn2cnc(C(=O)N[C@H](C)C(F)(F)F)c2CN1C(=O)Nc1ccc(F)c(F)c1	60.9 µM	
C[C@H]1Cn2cnc(C(=O)N[C@H](C)C(F)(F)F)c2CN1C(=O)Nc1cc(F)nc(F)c1	> 100 µM	
Cc1cc(NC(=O)N2Cc3c(C(=O)N[C@H](C)C(F)(F)F)ncn3C[C@@H]2C)ccc1F	> 100 µM	clearance [1]: 26.6 mL/min/kg; AUC [2]: 2.12 µg/mL/h; half-life [3]: 3.87 h; Cmax [4]: 492 ng/mL
CC1CN(C(=O)Nc2ccc(F)c(C#N)c2)Cc2c(C(=O)N[C@H](C)C(F)(F)F)ncn21 (single isomer, unassigned)	> 100 µM	
